Literature values as cited in patent publication US20070072940A1, “Use of quinol derivatives thereof for cosmetic, dietary supplement or pharmaceutical compositions and compositions thereby obtained” (priority 2005, published 2007).

Key:
S. aureus = conditions: in vitro
B. subtilis = conditions: in vitro
fibrin = conditions: through an action on the polymerization of fibrin
[1] = system: skin trauma such as bruising or blemishes; conditions: applied topically
[2] = system: nutritional muscular dystrophy
[3] = system: lipid peroxidation in liposomes
[4] = results combined with previous research
[5] = system: low density lipoprotein lipids

Compound: Cc1c(C)c2c(c(C)c1OP(=O)(O)O)CC[C@@](C)(CCC[C@H](C)CCC[C@H](C)CCCC(C)C)O2 [DL alpha tocopherol phosphate]
- antimicrobial action on S. aureus (S. aureus): antimicrobial action
- antimicrobial action on B. subtilis (B. subtilis): antimicrobial action
- anticoagulant action (fibrin): anticoagulant action

Compound: C/C(=C\Cc1c(C)c(O)c2ccccc2c1O)CCC[C@H](C)CCC[C@H](C)CCCC(C)C [Phylloquinol]
- free radical scavenging ability, comparison (free radical): greater than that of alpha tocopherol quinol, plastoquinol, and alpha tocopherol

Compound: CC(C)=CCC/C(C)=C/CC/C(C)=C/CC/C(C)=C/CC/C(C)=C/CC/C(C)=C/CC/C(C)=C/CC/C(C)=C/CC/C(C)=C/Cc1cc(O)c(C)c(C)c1O [Plastoquinol]
- free radical scavenging ability, comparison (free radical): greater than that of ubiquinol and alpha tocopherol

Compound: CC1=C(C/C=C(\C)CCC[C@H](C)CCC[C@H](C)CCCC(C)C)C(=O)c2ccccc2C1=O [Vitamin K, Phytonadione]
- reduction of severity of skin trauma [1]: ability to reduce the severity of skin trauma

Compound: Cc1c(C)c(O)c(CC[C@](C)(O)CCC[C@H](C)CCC[C@H](C)CCCC(C)C)c(C)c1O [alpha tocopherol quinol]
- prevention and treatment of nutritional muscular dystrophy ([2]; rabbit, injectable and oral): could prevent and treat nutritional muscular dystrophy
- prevention of creatinuria and loss of weight caused by vitamin E deficiency ([2]; vitamin E deficiency): could prevent creatinuria and loss of weight
- inhibition of lipid peroxidation [3]: shown to inhibit lipid peroxidation
- inhibition of lipid peroxidation in liposomes, comparison ([3]; liposomes, compared with alpha tocopherol quinone): superior inhibition of lipid peroxidation in liposomes
- toxicity [4]: non-toxic
- free radical scavenging ability, comparison (free radical): greater than that of ubiquinol and alpha tocopherol
- interception of aqueous peroxyl radicals [5]: directly intercepted aqueous peroxyl radicals
- reduction of lipoprotein ubiquinone to ubiquinol ([5]; associated with LDL): instantaneously reduce the lipoprotein ubiquinone to ubiquinol
- quenching of alpha tocopheroxyl radicals ([5]; in oxidizing LDL): rapidly quenched alpha tocopheroxyl radicals
- inhibition of radical initiated oxidation of low density lipoprotein lipids ([5]; in vitro): efficient multifunctional inhibitor

Compound: CC1=C(C)C(=O)C(CC[C@](C)(O)CCC[C@H](C)CCC[C@H](C)CCCC(C)C)=C(C)C1=O [alpha tocopherol quinone]
- inhibition of lipid peroxidation [3]: shown to inhibit lipid peroxidation
- toxicity [4]: non-toxic

Compound: Menaquinol
- free radical scavenging ability, comparison (free radical): greater than that of alpha tocopherol quinol, plastoquinol, and alpha tocopherol
